Measured values from US20120058989A1, “ANTIBACTERIAL FLUOROQUINOLONE ANALOGS” (Achaogen, Inc., priority 2008, published 2012).

What was measured:
Assay in all cases: MIC, CLSI broth microdilution
Format in all cases: cell-based
[1] = tested on: E. coli AECO066 (Fluoroquinolone-resistant); settings: Table 2
Method: (§1) Minimum inhibitory concentrations (MIC) were determined by reference Clinical and Laboratory Standards Institute (CLSI) broth microdilution methods per M7-A7 [2006]. Quality control ranges utilizing E. coli ATCC 25922, P. aeruginosa ATCC 27853 and S. aureus ATCC 29213, and interpretive criteria for comparator agents were as published in CLSI M100-S17 [2007]. Briefly, serial two-fold dilutions of the test compounds were prepared at 2× concentration in Mueller Hinton Broth. The compound dilutions were mixed in 96-well assay plates in a 1:1 ratio with bacterial inoculum. The inoculum was prepared by suspension of a colony from an agar plate that was prepared the previous day. Bacteria were suspended in sterile saline and added to each assay plate to obtain a final concentration of 5×10^5 CFU/mL. The plates were incubated at 35° C. for 20 hours in ambient air.

[2] = tested on: S. pneumoniae ASPN001 (Fluoroquinolone-susceptible, ATCC49619); settings: Table 2
Method: as §1

[3] = tested on: S. pneumoniae ASPN1027 (Fluoroquinolone-resistant); settings: Table 2
Method: as §1

[4] = tested on: A. baumannii AABA1065 (Fluoroquinolone-susceptible); settings: Table 2
Method: as §1

[5] = tested on: P. aeruginosa APAE001 (Fluoroquinolone-susceptible, ATCC27853); settings: Table 2
Method: as §1

[6] = tested on: S. aureus ASAU001 (Fluoroquinolone-susceptible, ATCC29213); settings: Table 2
Method: as §1

[7] = tested on: S. aureus ASAU1031 (Fluoroquinolone-resistant); settings: Table 2
Method: as §1

[8] = tested on: A. baumannii AABA1009 (Fluoroquinolone-resistant); settings: Table 2
Method: as §1

[9] = tested on: P. aeruginosa APAE054 (Fluoroquinolone-resistant); settings: Table 2
Method: as §1

[10] = tested on: E. coli AECO001 (Fluoroquinolone susceptible, ATCC25922); settings: Table 2, 35° C., 20 hours
Method: as §1

Row | SMILES | MIC AECO 066 [1] | MIC ASPN 001 [2] | MIC ASPN 1027 [3] | MIC AABA 1065 [4] | MIC APAE 001 [5] | MIC ASAU 001 [6] | MIC ASAU 1031 [7] | MIC AABA 1009 [8] | MIC APAE 054 [9] | MIC AECO 001 [10]
1 | O=C(O)c1cn(C2CC2)c2c3c(c(F)cc2c1=O)N1CCCC1CSC3 (stereo not drawn) [8/10, 13-Cyclopropyl-8-fluoro-10-oxo-3a,4,5,6,10,13-hexahydro-1H,3H-pyrrolo[2′,1′:3,4][1,4]thiazepino[5,6-h]quinoline-11-carboxylic acid] | C (MIC's of greater than 8.0 μg/mL = C) | C (MIC's of greater than 8.0 μg/mL = C) | C (MIC's of greater than 8.0 μg/mL = C) | B (MIC's of greater than 1.0 μg/mL to 8.0 μg/mL = B) | C (MIC's of greater than 8.0 μg/mL = C) | A (MIC's of 1.0 μg/mL or less = A) | C (MIC's of greater than 8.0 μg/mL = C) | C (MIC's of greater than 8.0 μg/mL = C) | C (MIC's of greater than 8.0 μg/mL = C) | B (MIC's of greater than 1.0 μg/mL to 8.0 μg/mL = B)
2 | O=C(O)c1cn(C2CC2)c2c3c(c(F)cc2c1=O)N1CCCC1CS(=O)(=O)C3 (stereo not drawn) [8/12, 13-Cyclopropyl-8-fluoro-10-oxo-3a,4,5,6,10,13-hexahydro-1H,3H-pyrrolo[2′,1′:3,4][1,4]thiazepino[5,6-h]quinoline-11-carboxylic acid 2,2-dioxide] | C (MIC's of greater than 8.0 μg/mL = C) | C (MIC's of greater than 8.0 μg/mL = C) | C (MIC's of greater than 8.0 μg/mL = C) | C (MIC's of greater than 8.0 μg/mL = C) | C (MIC's of greater than 8.0 μg/mL = C) | B (MIC's of greater than 1.0 μg/mL to 8.0 μg/mL = B) | C (MIC's of greater than 8.0 μg/mL = C) | C (MIC's of greater than 8.0 μg/mL = C) | C (MIC's of greater than 8.0 μg/mL = C) | C (MIC's of greater than 8.0 μg/mL = C)
3 | O=C(O)c1cn(C2CC2)c2c3c(c(F)cc2c1=O)N1CCCC1C[S+]([O-])C3 (stereo not drawn) [8/14, 13-Cyclopropyl-8-fluoro-10-oxo-3a,4,5,6,10,13-hexahydro-1H,3H-pyrrolo[2′,1′:3,4][1,4]thiazepino[5,6-h]quinoline-1′-carboxylic acid 2-oxide] | C (MIC's of greater than 8.0 μg/mL = C) | C (MIC's of greater than 8.0 μg/mL = C) | C (MIC's of greater than 8.0 μg/mL = C) | B (MIC's of greater than 1.0 μg/mL to 8.0 μg/mL = B) | C (MIC's of greater than 8.0 μg/mL = C) | B (MIC's of greater than 1.0 μg/mL to 8.0 μg/mL = B) | C (MIC's of greater than 8.0 μg/mL = C) | C (MIC's of greater than 8.0 μg/mL = C) | C (MIC's of greater than 8.0 μg/mL = C) | B (MIC's of greater than 1.0 μg/mL to 8.0 μg/mL = B)
4 | O=C(O)c1cn(C2CC2)c2c3c(c(F)cc2c1=O)N1CCCC1C(=O)NC3 (stereo not drawn) [10/6, 13-Cyclopropyl-8-fluoro-3,10-dioxo-2,3,3a,4,5,6,10,13-octahydro-1H-pyrrolo[2′,1′:3,4][1,4]diazepino[5,6-h]quinoline-1′-carboxylic acid] | C (MIC's of greater than 8.0 μg/mL = C) | A (MIC's of 1.0 μg/mL or less = A) | B (MIC's of greater than 1.0 μg/mL to 8.0 μg/mL = B) | B (MIC's of greater than 1.0 μg/mL to 8.0 μg/mL = B) | B (MIC's of greater than 1.0 μg/mL to 8.0 μg/mL = B) | A (MIC's of 1.0 μg/mL or less = A) | B (MIC's of greater than 1.0 μg/mL to 8.0 μg/mL = B) | C (MIC's of greater than 8.0 μg/mL = C) | C (MIC's of greater than 8.0 μg/mL = C) | A (MIC's of 1.0 μg/mL or less = A)
5 | O=C(O)c1cn(C2CC2)c2c3c(c(F)cc2c1=O)N1CCCC1COC3 (stereo not drawn) [11/8, 13-Cyclopropyl-8-fluoro-10-oxo-3a,4,5,6,10,13-hexahydro-1H,3H-pyrrolo[2′,1′:3,4][1,4]oxazepino[5,6-h]quinoline-11-carboxylic acid] | C (MIC's of greater than 8.0 μg/mL = C) | A (MIC's of 1.0 μg/mL or less = A) | C (MIC's of greater than 8.0 μg/mL = C) | A (MIC's of 1.0 μg/mL or less = A) | C (MIC's of greater than 8.0 μg/mL = C) | A (MIC's of 1.0 μg/mL or less = A) | B (MIC's of greater than 1.0 μg/mL to 8.0 μg/mL = B) | C (MIC's of greater than 8.0 μg/mL = C) | C (MIC's of greater than 8.0 μg/mL = C) | A (MIC's of 1.0 μg/mL or less = A)
6 | O=C(O)c1cn(C2CC2)c2c3c(c(F)cc2c1=O)N1CCCC1CN=C3 (stereo not drawn) [12/4, 13-Cyclopropyl-8-fluoro-10-oxo-3a,4,5,6,10,13-hexahydro-3H-pyrrolo[2′,1′:3,4][1,4]diazepino[5,6-h]quinoline-11-carboxylic acid] | C (MIC's of greater than 8.0 μg/mL = C) | B (MIC's of greater than 1.0 μg/mL to 8.0 μg/mL = B) | C (MIC's of greater than 8.0 μg/mL = C) | C (MIC's of greater than 8.0 μg/mL = C) | B (MIC's of greater than 1.0 μg/mL to 8.0 μg/mL = B) | A (MIC's of 1.0 μg/mL or less = A) | C (MIC's of greater than 8.0 μg/mL = C) | C (MIC's of greater than 8.0 μg/mL = C) | C (MIC's of greater than 8.0 μg/mL = C) | A (MIC's of 1.0 μg/mL or less = A)
7 | O=C(O)C(F)(F)F.O=C(O)c1cn(C2CC2)c2c3c(c(F)cc2c1=O)N1CCCC1CNC3 (stereo not drawn) [13/5, 13-Cyclopropyl-8-fluoro-10-oxo-2,3,3a,4,5,6,10,13-octahydro-1H-pyrrolo[2′,1′:3,4][1,4]diazepino[5,6-h]quinoline-11-carboxylic acid trifluoroacetate] | C (MIC's of greater than 8.0 μg/mL = C) | B (MIC's of greater than 1.0 μg/mL to 8.0 μg/mL = B) | C (MIC's of greater than 8.0 μg/mL = C) | A (MIC's of 1.0 μg/mL or less = A) | B (MIC's of greater than 1.0 μg/mL to 8.0 μg/mL = B) | A (MIC's of 1.0 μg/mL or less = A) | C (MIC's of greater than 8.0 μg/mL = C) | C (MIC's of greater than 8.0 μg/mL = C) | C (MIC's of greater than 8.0 μg/mL = C) | A (MIC's of 1.0 μg/mL or less = A)
8 | CC(=O)N1Cc2c(c(F)cc3c(=O)c(C(=O)O)cn(C4CC4)c23)N2CCCC2C1 (stereo not drawn) [14/4, 2-Acetyl-13-cyclopropyl-8-fluoro-10-oxo-2,3,3a,4,5,6,10,13-octahydro-1H-pyrrolo[2′,1′:3,4][1,4]diazepino[5,6-h]quinoline-11-carboxylic acid] | C (MIC's of greater than 8.0 μg/mL = C) | C (MIC's of greater than 8.0 μg/mL = C) | C (MIC's of greater than 8.0 μg/mL = C) | C (MIC's of greater than 8.0 μg/mL = C) | C (MIC's of greater than 8.0 μg/mL = C) | C (MIC's of greater than 8.0 μg/mL = C) | C (MIC's of greater than 8.0 μg/mL = C) | C (MIC's of greater than 8.0 μg/mL = C) | C (MIC's of greater than 8.0 μg/mL = C) | B (MIC's of greater than 1.0 μg/mL to 8.0 μg/mL = B)
9 | CN1Cc2c(c(F)cc3c(=O)c(C(=O)O)cn(C4CC4)c23)N2CCCC2C1.O=C(O)C(F)(F)F (stereo not drawn) [15/3, 13-Cyclopropyl-8-fluoro-2-methyl-10-oxo-2,3,3a,4,5,6,10,13-octahydro-1H-pyrrolo[2′,1′:3,4][1,4]diazepino[5,6-h]quinoline-11-carboxylic acid trifluoroacetate] | C (MIC's of greater than 8.0 μg/mL = C) | B (MIC's of greater than 1.0 μg/mL to 8.0 μg/mL = B) | C (MIC's of greater than 8.0 μg/mL = C) | A (MIC's of 1.0 μg/mL or less = A) | C (MIC's of greater than 8.0 μg/mL = C) | A (MIC's of 1.0 μg/mL or less = A) | C (MIC's of greater than 8.0 μg/mL = C) | C (MIC's of greater than 8.0 μg/mL = C) | C (MIC's of greater than 8.0 μg/mL = C) | A (MIC's of 1.0 μg/mL or less = A)
